Measured values reported in patent publication US4255421A, “Fortimicin aminoglycosides, process for production thereof, and use thereof” (Kowa Company, Ltd., priority 1978, dated 1981).

How the values were obtained:
Format in all cases: cell-based
[1] = tested on: Pseudomonas aeruginosa K-11; assay: antibacterial spectra (Table 1); settings: Pseudomonas aeruginosa K-11 (resistant to kanamycin)
[2] = tested on: Pseudomonas aeruginosa No. 157; assay: antibacterial spectra (Table 1)
[3] = tested on: Escherichia coli NIHJ; assay: antibacterial spectra (Table 1)
[4] = tested on: Escherichia coli ML1410; assay: antibacterial spectra (Table 1)
[5] = tested on: Serratia marcescens; assay: antibacterial spectra (Table 1)
[6] = tested on: Pseudomonas aeruginosa A3; assay: antibacterial spectra (Table 1)
[7] = tested on: Proteus inconstans; assay: antibacterial spectra (Table 1)
[8] = tested on: Pseudomonas aeruginosa Shibata; assay: antibacterial spectra (Table 1)
[9] = tested on: Proteus vulgaris OX-19; assay: antibacterial spectra (Table 1)
[10] = tested on: Streptococcus faecalis; assay: antibacterial spectra (Table 1)
[11] = tested on: Pseudomonas aeruginosa No. 315; assay: antibacterial spectra (Table 1); settings: Pseudomonas aeruginosa No. 315 (resistant to gentamicin, tobramycin and amikacin)
[12] = tested on: Klebsiella pneumoniae PCI 602; assay: antibacterial spectra (Table 1)
[13] = tested on: Staphylococcus aureus 209P; assay: antibacterial spectra (Table 1)
[14] = tested on: Bacillus cereus; assay: antibacterial spectra (Table 1)
[15] = tested on: Pseudomonas aeruginosa No. 12; assay: antibacterial spectra (Table 1)
[16] = tested on: Bacillus anthracis
[17] = tested on: Pseudomonas aeruginosa TI-13; assay: antibacterial spectra (Table 1)
[18] = tested on: Bacillus subtilis ATCC 6633; assay: antibacterial spectra (Table 1)

Q: Which antibacterial spectra [1] does the source give for 4-N-glycyl KA-6606VI here?
A: Its antibacterial spectra is 6.25.

Q: And the antibacterial spectra [2]?
A: The antibacterial spectra was 3.13.

Q: And the antibacterial spectra [3]?
A: The antibacterial spectra was 1.56.

Q: What about the antibacterial spectra [4] of the same substance?
A: The antibacterial spectra was 3.13.

Q: And the antibacterial spectra [5]?
A: Its antibacterial spectra is 0.78.

Q: What about the antibacterial spectra [6] of the same substance?
A: The antibacterial spectra was 6.25.

Q: And the antibacterial spectra [7]?
A: Its antibacterial spectra is 1.56.

Q: And the antibacterial spectra [8]?
A: The antibacterial spectra was 6.25.

Q: What about the antibacterial spectra [9] of the same substance?
A: Its antibacterial spectra is 1.56.

Q: And the antibacterial spectra [10]?
A: The antibacterial spectra was 25.

Q: What about the antibacterial spectra [11] of the same substance?
A: Its antibacterial spectra is 12.5.

Q: And the antibacterial spectra [12]?
A: The antibacterial spectra was 0.78.

Q: And the antibacterial spectra [13]?
A: The antibacterial spectra was 0.39.

Q: And the antibacterial spectra [14]?
A: Its antibacterial spectra is 0.78.

Q: And the antibacterial spectra [15]?
A: The antibacterial spectra was 0.78.

Q: What about the antibacterial spectra [16] of the same substance?
A: Its antibacterial spectra is 0.20.

Q: And the antibacterial spectra [17]?
A: Its antibacterial spectra is 3.13.

Q: What about the antibacterial spectra [18] of the same substance?
A: The antibacterial spectra was 0.20.
